Series [1] deals with Staphylococcus aureus. Nature of the series: Antibacterial activity against methicillin resistant Staphylococcus aureus USA400 assessed as reduction in bacterial cell growth incubated for 18 to 20 hrs by broth microdilution method. The format is functional. A general note: Broth dilution looks for growth in wells or tubes with falling amounts of substance.
Series [2] deals with Staphylococcus aureus. The series is described as follows: Antibacterial activity against Staphylococcus aureus NRS107 assessed as reduction in bacterial cell growth incubated for 18 to 20 hrs by broth microdilution method. In kind it is functional.
For series [3], the system named is Staphylococcus aureus. Nature of the series: Antibacterial activity against methicillin resistant Staphylococcus aureus NRS119 assessed as reduction in bacterial cell growth incubated for 18 to 20 hrs by broth microdilution method. In kind it is functional.
The test system of series [4] is Staphylococcus aureus. The series is described as follows: Antibacterial activity against vancomycin resistant Staphylococcus aureus VRS10 assessed as reduction in bacterial cell growth incubated for 18 to 20 hrs by broth microdilution method. The format is functional.
The test system of series [5] is Staphylococcus aureus. Nature of the series: Antibacterial activity against Staphylococcus aureus ATCC 6538 assessed as reduction in bacterial cell growth incubated for 18 to 20 hrs by broth microdilution method. In kind it is functional.
Series [6] has as its system Staphylococcus epidermidis. The series is described as follows: Antibacterial activity against methicillin resistant Staphylococcus epidermidis NRS101 assessed as reduction in bacterial cell growth incubated for 18 to 20 hrs by broth microdilution method. The format is functional.
Series [7] has as its system Staphylococcus aureus. The series is described as follows: Antibacterial activity against vancomycin resistant Staphylococcus aureus VRS12 assessed as reduction in bacterial cell growth incubated for 18 to 20 hrs by broth microdilution method. In kind it is functional.
The test system of series [8] is Staphylococcus aureus. Nature of the series: Antibacterial activity against vancomycin resistant Staphylococcus aureus VRS11a assessed as reduction in bacterial cell growth incubated for 18 to 20 hrs by broth microdilution method. In kind it is functional.
Series [9] deals with Enterococcus faecium. The series is described as follows: Antibacterial activity against vancomycin resistant Enterococcus faecium ATCC 700221 assessed as reduction in bacterial cell growth incubated for 18 to 20 hrs by broth microdilution method. The format is functional.
Series [10] relates to Listeria monocytogenes. Nature of the series: Antibacterial activity against Listeria monocytogenes ATCC 19111 assessed as reduction in bacterial cell growth incubated for 18 to 20 hrs by broth microdilution method. The format is functional.
For series [11], the system named is Staphylococcus aureus. The series is described as follows: Bactericidal activity against Staphylococcus aureus ATCC 6538 assessed as reduction in bacterial cell growth incubated for 18 to 20 hrs followed by re-plating on tryptic soy agar plates at 37 degC for 18 hrs by broth microdilution assay. In kind it is functional.
Series [12] relates to Staphylococcus aureus. The series is described as follows: Bactericidal activity against Staphylococcus aureus NRS107 assessed as reduction in bacterial cell growth incubated for 18 to 20 hrs followed by re-plating on tryptic soy agar plates at 37 degC for 18 hrs by broth microdilution assay. In kind it is functional.
In series [13] the test system is Staphylococcus aureus. The series is described as follows: Bactericidal activity against methicillin resistant Staphylococcus aureus NRS119 assessed as reduction in bacterial cell growth incubated for 18 to 20 hrs followed by re-plating on tryptic soy agar plates at 37 degC for 18 hrs by broth microdilution assay. The format is functional.
The subject of series [14] is Staphylococcus aureus. The series is described as follows: Bactericidal activity against methicillin-resistant Staphylococcus aureus USA300 assessed as reduction in bacterial cell growth incubated for 18 to 20 hrs followed by re-plating on tryptic soy agar plates at 37 degC for 18 hrs by broth microdilution assay. In kind it is functional.
Series [15] relates to Staphylococcus aureus. Nature of the series: Bactericidal activity against vancomycin resistant Staphylococcus aureus VRS10 assessed as reduction in bacterial cell growth incubated for 18 to 20 hrs followed by re-plating on tryptic soy agar plates at 37 degC for 18 hrs by broth microdilution assay. The format is functional.
In series [16] the test system is Staphylococcus aureus. Nature of the series: Bactericidal activity against vancomycin resistant Staphylococcus aureus VRS11a assessed as reduction in bacterial cell growth incubated for 18 to 20 hrs followed by re-plating on tryptic soy agar plates at 37 degC for 18 hrs by broth microdilution assay. The format is functional.
Series [17] concerns Staphylococcus aureus. Nature of the series: Bactericidal activity against vancomycin resistant Staphylococcus aureus VRS12 assessed as reduction in bacterial cell growth incubated for 18 to 20 hrs followed by re-plating on tryptic soy agar plates at 37 degC for 18 hrs by broth microdilution assay. In kind it is functional.
Series [18] has as its system Staphylococcus epidermidis. Nature of the series: Bactericidal activity against methicillin resistant Staphylococcus epidermidis NRS101 assessed as reduction in bacterial cell growth incubated for 18 to 20 hrs followed by re-plating on tryptic soy agar plates at 37 degC for 18 hrs by broth microdilution assay. In kind it is functional.
The next series concerns Enterococcus faecalis. Nature of the series: Bactericidal activity against vancomycin resistant Enterococcus faecalis ATCC 51299 assessed as reduction in bacterial cell growth incubated for 18 to 20 hrs followed by re-plating on tryptic soy agar plates at 37 degC for 18 hrs by broth microdilution assay. The format is functional.
The subject of series [19] is Enterococcus faecium. The series is described as follows: Bactericidal activity against vancomycin resistant Enterococcus faecium ATCC 700221 assessed as reduction in bacterial cell growth incubated for 18 to 20 hrs followed by re-plating on tryptic soy agar plates at 37 degC for 18 hrs by broth microdilution assay. The format is functional.
Series [20] relates to Listeria monocytogenes. Nature of the series: Bactericidal activity against Listeria monocytogenes ATCC 19111 assessed as reduction in bacterial cell growth incubated for 18 to 20 hrs followed by re-plating on tryptic soy agar plates at 37 degC for 18 hrs by broth microdilution assay. The format is functional.
Series [21] deals with Streptococcus pneumoniae. The series is described as follows: Bactericidal activity against Cephalosporin resistant Streptococcus pneumoniae ATCC 51916 assessed as reduction in bacterial cell growth incubated for 18 to 20 hrs followed by re-plating on tryptic soy agar plates at 37 degC for 18 hrs by broth microdilution assay. In kind it is functional.
The test system of series [22] is Streptococcus pneumoniae. Nature of the series: Bactericidal activity against Methicillin resistant Streptococcus pneumoniae ATCC 700677 assessed as reduction in bacterial cell growth incubated for 18 to 20 hrs followed by re-plating on tryptic soy agar plates at 37 degC for 18 hrs by broth microdilution assay. In kind it is functional.
Series [23] has as its system Acinetobacter baumannii. The series is described as follows: Antibacterial activity against Acinetobacter baumannii ATCC 19606 assessed as reduction in bacterial cell growth incubated for 18 to 20 hrs by broth microdilution method. The format is functional.
Series [24] concerns Escherichia coli. Nature of the series: Antibacterial activity against Escherichia coli BW25113 assessed as reduction in bacterial cell growth incubated for 18 to 20 hrs by broth microdilution method. The format is functional.
Series [25] deals with Escherichia coli. Nature of the series: Antibacterial activity against Escherichia coli JW55031 harboring deltatolC mutant assessed as reduction in bacterial cell growth incubated for 18 to 20 hrs by broth microdilution method. In kind it is functional.
Series [26] deals with Klebsiella pneumoniae. Nature of the series: Antibacterial activity against Klebsiella pneumoniae BAA-1706 assessed as reduction in bacterial cell growth incubated for 18 to 20 hrs by broth microdilution method. In kind it is functional.
For series [27], the system named is Pseudomonas aeruginosa. Nature of the series: Antibacterial activity against Pseudomonas aeruginosa ATCC 15442 assessed as reduction in bacterial cell growth incubated for 18 to 20 hrs by broth microdilution method. The format is functional.
For series [28], the system named is Acinetobacter baumannii. The series is described as follows: Bactericidal activity against Acinetobacter baumannii ATCC 19606 assessed as reduction in bacterial cell growth incubated for 18 to 20 hrs followed by re-plating on tryptic soy agar plates at 37 degC for 18 hrs by broth microdilution assay. In kind it is functional.
For series [29], the system named is Escherichia coli. Nature of the series: BActericidal activity against Escherichia coli BW25113 assessed as reduction in bacterial cell growth incubated for 18 to 20 hrs followed by re-plating on tryptic soy agar plates at 37 degC for 18 hrs by broth microdilution assay. In kind it is functional.
Series [30] concerns Escherichia coli. The series is described as follows: Bactericidal activity against Escherichia coli JW55031 harboring deltatolC mutant assessed as reduction in bacterial cell growth incubated for 18 to 20 hrs followed by re-plating on tryptic soy agar plates at 37 degC for 18 hrs by broth microdilution assay. The format is functional.
The test system of series [31] is Klebsiella pneumoniae. The series is described as follows: Bactericidal activity against Klebsiella pneumoniae BAA-1706 assessed as reduction in bacterial cell growth incubated for 18 to 20 hrs followed by re-plating on tryptic soy agar plates at 37 degC for 18 hrs by broth microdilution assay. In kind it is functional.
Series [32] concerns Pseudomonas aeruginosa. The series is described as follows: Bactericidal activity against Pseudomonas aeruginosa ATCC 15442 assessed as reduction in bacterial cell growth incubated for 18 to 20 hrs followed by re-plating on tryptic soy agar plates at 37 degC for 18 hrs by broth microdilution assay. In kind it is functional.
Series [33] is described as follows: Solubility of compound in PBS after 2 hrs by turbidity based absorbance analysis. In kind it is physicochemical.

Values after ≈ are worked out from the molar mass of the structure shown.

As usually defined, the MIC is the least concentration at which growth counts as inhibited. On to `C/C(=N\NC(=N)N)c1sc(-c2ccc(C#Cc3ccncc3)cc2)nc1C`, for which, in the series with Staphylococcus aureus [1], the MIC was > 64 µg/mL.
By MBC is commonly meant the lowest tested concentration that kills the bacteria rather than only halting them. As for `CC(=O)NC[C@H]1CN(c2ccc(N3CCOCC3)c(F)c2)C(=O)O1` [LINEZOLID], the MIC in the series on Staphylococcus aureus [2] was 1 µg/mL (≈ 2.96 µM); in the series on Staphylococcus aureus [1], 1 µg/mL (≈ 2.96 µM); with Staphylococcus aureus [3], 32 µg/mL (≈ 94.9 µM); in the series with Staphylococcus aureus [4], 1 µg/mL (≈ 2.96 µM); in the series on Staphylococcus aureus [5], 1 µg/mL (≈ 2.96 µM); in [6], ≤ 0.5 µg/mL. In addition, the minimal inhibitory concentration (MIC) in the series on Staphylococcus aureus [7] was 1 µg/mL (≈ 2.96 µM); in the series with Staphylococcus aureus [8] it was 1 µg/mL (≈ 2.96 µM); with Enterococcus faecium [9], ≤ 0.5 µg/mL; in the series with Listeria monocytogenes [10], ≤ 0.5 µg/mL. In addition, the MBC in the series with Staphylococcus aureus [11] is 16 µg/mL (≈ 47.4 µM); in the series on Staphylococcus aureus [12], 16 µg/mL (≈ 47.4 µM); with Staphylococcus aureus [13], > 64 µg/mL; in the series with Staphylococcus aureus [14], 32 µg/mL (≈ 94.9 µM); with Staphylococcus aureus [15] it was 16 µg/mL (≈ 47.4 µM); with Staphylococcus aureus [16], 16 µg/mL (≈ 47.4 µM). For the same compound, the MBC in the series with Staphylococcus aureus [17] was 16 µg/mL (≈ 47.4 µM); in [18], 16 µg/mL (≈ 47.4 µM); with Enterococcus faecalis, 32 µg/mL (≈ 94.9 µM); with Enterococcus faecium [19], 8 µg/mL (≈ 23.7 µM); in the series on Listeria monocytogenes [20], 32 µg/mL (≈ 94.9 µM); with Streptococcus pneumoniae [21] it was 16 µg/mL (≈ 47.4 µM). Besides, the MBC in the series with Streptococcus pneumoniae [22] was 32 µg/mL (≈ 94.9 µM).
With `C/C(=N\NC(=N)N)c1sc(-c2ccc(C#Cc3ccccc3O)cc2)nc1C`, in the series with Staphylococcus aureus [1], the MIC is > 64 µg/mL.
Same read-out and setting: with `C/C(=N\NC(=N)N)c1sc(-c2ccc(C#Cc3ccc(C(=O)O)c(C)c3)cc2)nc1C` the figure was > 64 µg/mL; with `C/C(=N\NC(=N)N)c1sc(-c2ccc(C#Cc3ncccn3)cc2)nc1C`, > 64 µg/mL; with `C/C(=N\NC(=N)N)c1sc(-c2ccc(C#Cc3csc(C)c3C)cc2)nc1C`, 16 µg/mL (≈ 39.3 µM).
In the case of `COc1cccc(C#Cc2ccc(-c3nc(C)c(/C(C)=N/NC(=N)N)s3)cc2)c1`, the minimum inhibitory concentration (MIC) in the series with Staphylococcus aureus [1] was found to be 4 µg/mL (≈ 9.91 µM).
The same measure, in the same setting: with `C/C(=N\NC(=N)N)c1sc(-c2ccc(C#Cc3ccc(C(N)=S)cc3)cc2)nc1C` the figure was 64 µg/mL (≈ 148 µM); with `C/C(=N\NC(=N)N)c1sc(-c2ccc(C#Cc3ccc(C)cc3)cc2)nc1C`, 32 µg/mL (≈ 82.6 µM); with `C/C(=N\NC(=N)N)c1sc(-c2ccc(C#Cc3ccccc3N)cc2)nc1C`, > 64 µg/mL.
`C/C(=N\NC(=N)N)c1sc(-c2ccc(C#Cc3ccccc3[N+](=O)[O-])cc2)nc1C`: the minimal inhibitory concentration (MIC) with Staphylococcus aureus [1] is > 64 µg/mL.
Same read-out and setting: the result for `C/C(=N\NC(=N)N)c1sc(-c2ccc(C#Cc3ccoc3)cc2)nc1C` reads 4 µg/mL (≈ 11 µM).
Consider `CC[C@H]1OC(=O)[C@H](C)[C@@H](O[C@H]2C[C@@](C)(OC)[C@@H](O)[C@H](C)O2)[C@H](C)[C@@H](O[C@@H]2O[C@H](C)C[C@H](N(C)C)[C@H]2O)[C@](C)(O)C[C@@H](C)C(=O)[C@H](C)[C@@H](O)[C@]1(C)O` [ERYTHROMYCIN], for which the MIC with Acinetobacter baumannii [23] was 8 µg/mL (≈ 10.9 µM); in the series with Escherichia coli [24] it was 32 µg/mL (≈ 43.6 µM); with Escherichia coli [25] it was 1 µg/mL (≈ 1.36 µM); with Klebsiella pneumoniae [26], 64 µg/mL (≈ 87.2 µM); with Pseudomonas aeruginosa [27] it was > 64 µg/mL. Besides, the MBC in the series with Acinetobacter baumannii [28] was 16 µg/mL (≈ 21.8 µM); with Escherichia coli [29], > 64 µg/mL; in the series on Escherichia coli [30] it was 2 µg/mL (≈ 2.73 µM); in the series on Klebsiella pneumoniae [31], > 64 µg/mL; with Pseudomonas aeruginosa [32], > 64 µg/mL.
`COC(=O)c1ccc(C#Cc2ccc(-c3nc(C)c(/C(C)=N/NC(=N)N)s3)cc2)c(C)c1`: the MIC in the series on Staphylococcus aureus [1] was > 64 µg/mL.
One may read the kinetic solubility as the concentration staying in solution when a stock, usually in DMSO, is diluted into the medium. `C/C(=N\NC(=N)N)c1sc(-c2ccc(C#CC3CCCCC3)cc2)nc1C`: the kinetic solubility at 2 h in series [33] amounted to 2.7 µM (≈ 1.02 µg/mL).

The record behind these values is ChEMBL document CHEMBL4393697, “Lipophilic efficient phenylthiazoles with potent undecaprenyl pyrophosphatase inhibitory activity” (Eur J Med Chem, 2019).
